Results published in patent publication US20160346392A1, “PULSE PHOTODYNAMIC TREATMENT OF SKIN CONDITIONS” (GALDERMA RESEARCH & DEVELOPMENT, priority 2013, published 2016).
“Also recorded” adds a separate entry of the source. Like-named read-outs stand apart in the source and are kept apart here.

Assays:
PpIX fluorescence = assay: Metvix pulse time investigation (Method B) on healthy volunteers: PpIX fluorescence; assay type: in vivo, human; conditions: short (30 min) pulse vs conventional 3-hour exposure; Table 1 and FIG. 8
Experimental: (§1) The formation of PPIX after 3 hours is seen in FIG. 8, and the relation to inflammation is seen in FIG. 9. […] The results are illustrated in Column 3 in FIGS. 4, 5, 6, and 7. […] Pain level is not changed.
Twenty-four healthy male volunteers of Scandinavian ancestry were included in the study (mean age 30 years, range 20-51). A treatment area was selected on the inside of both forearms of the volunteer. Each treatment area was divided into four minor treatment fields of the size 2×5 cm with at least 3 cm between each field using a prefabricated flexible template. In order to imitate skin lesions all fields were tape stripped 10 times with occlusive dressing before treatment (Tegaderm™ Roll, 3M, Glostrup, Denmark). […]
All fields were covered with light-impermeable, occlusive dressing. […] During and after illumination pain was recorded. […]
5-MAL-induced PpIX fluorescence was depicted non-invasively using a fluorescence camera (Medeikonos AB, Gothenburg, Sweden). The amount of PpIX fluorescence was calculated from the photographs by the program MatLab® (MatLab®, MathWorks, Natic, US). The amount of fluorescence was measured before tape stripping and cream application (baseline) and before and after illumination.
The photo bleaching is then the difference in PpIX fluorescence (AU) calculated from the pre and post illumination images.

[1] = Method A investigation of efficacy and inflammation with 30 min pulse exposure PDT; assay type: in vivo
Experimental: as §1

acne [2] = conditions: cream 16% wt. applied to face for 3 hours, non-coherent red light, repeated 2 weeks later; cited from earlier work
acne [3] = conditions: 20% ALA acid applied to back for 3 hours, 150 J/cm2 broad band light; cited from earlier work

Row | SMILES | PPIX concentration, pulse exposure versus conventional 3-hour exposure (PpIX fluorescence) | inflammation (erythema) ([1]; 30 min pulse exposure vs conventional 180 min exposure, FIGS. 6, 7) | pain level ([1]; 30 min pulse exposure vs conventional exposure, FIG. 4) | cure rate / efficacy ([1]; 30 min pulse exposure vs conventional exposure, FIG. 5) | efficacy in treatment of acne (acne [2]) | side effects of treatment (acne [2]) | efficacy in treatment of acne (acne [3]) | side effects of treatment (acne [3])
1 | COC(=O)CCC(=O)CN [5-MAL, 5-ALA methyl ester] | clearly lower than for the conventional 3 hour exposure | less inflammation | not changed | unchanged efficacy; also recorded: as efficient | effective in the treatment of acne | caused pain and induced severe inflammation |  | 
2 | NCC(=O)CCC(=O)O [ALA, 5-amino-4-oxo-pentanoic acid] |  |  |  |  |  |  | effective for the treatment of acne | erythema, hyperpigmentation and exfoliation were often seen after PDT treatment
